Assay results: patent publication US20060116368A1, “4-Piperidinecarboxamide modulators of vanilloid VR1 receptor” (priority 2004, published 2006)

Biological target: T1, Human Vanilloid Receptor 1 (Homo sapiens, UniProt Q8NER1)
T1 construct: expressed in transfected cells; host or cells: HEK 293
Experiment: Human VR1 functional assay using FLIPR, Protocol 1
Assay type: cell-based
Settings: for inhibition at 9 µM: HEK293, 9 uM, inhibition of capsaicin (EC80)-induced calcium response, HEK 293 cells transfected with hVR1, read-out: h % I (9 uM); for IC50: decreased capsaicin (EC80)-induced calcium response, HEK 293 hVR1, read-out: h IC50
Protocol: The functional activity of the test compounds was determined by measuring changes in intracellular calcium concentration using FLIPR™ Calcium-3 Assay Kit and FLIPR™ technology.
HEK 293 cells transfected with Human Vanilloid Receptor 1 were maintained at 37° C. and 5% CO2 in: Dulbecco's Modification of Eagle's Medium (high glucose, L-glutamine, pyridoxine HCl, No sodium pyruvate), 10% FBS, 1× Penicillin-Streptomycin-Amphotericin B, 200 ug/mL zeocin. Approximately 24 hours prior to assay, 30,000 cells/well were plated onto a 384-well black clear bottom poly-D-lysine-coated assay plate with a well volume of 25 µL using Titertek Multidrop.
On the day of the assay, the medium was dumped and 50 μL 1× dye were loaded using Multidrop. Plates were incubated with dye at 37° C. for 30 minutes followed by 30 minutes incubation at room temperature. Then the plates were assayed by FLIPR™ with 2 additions: 12.5 μL test compound with 5 minutes data acquisition followed by 12.5 μL capsaicin at the EC80 concentration.
The EC50 values of test compounds were calculated based on a test compound-induced calcium response at the 5-minute time point. The IC50 values of compounds were calculated based on a decreased capsaicin-induced calcium response in the presence of test compound.

T1 sequence (Q8NER1 whole entry): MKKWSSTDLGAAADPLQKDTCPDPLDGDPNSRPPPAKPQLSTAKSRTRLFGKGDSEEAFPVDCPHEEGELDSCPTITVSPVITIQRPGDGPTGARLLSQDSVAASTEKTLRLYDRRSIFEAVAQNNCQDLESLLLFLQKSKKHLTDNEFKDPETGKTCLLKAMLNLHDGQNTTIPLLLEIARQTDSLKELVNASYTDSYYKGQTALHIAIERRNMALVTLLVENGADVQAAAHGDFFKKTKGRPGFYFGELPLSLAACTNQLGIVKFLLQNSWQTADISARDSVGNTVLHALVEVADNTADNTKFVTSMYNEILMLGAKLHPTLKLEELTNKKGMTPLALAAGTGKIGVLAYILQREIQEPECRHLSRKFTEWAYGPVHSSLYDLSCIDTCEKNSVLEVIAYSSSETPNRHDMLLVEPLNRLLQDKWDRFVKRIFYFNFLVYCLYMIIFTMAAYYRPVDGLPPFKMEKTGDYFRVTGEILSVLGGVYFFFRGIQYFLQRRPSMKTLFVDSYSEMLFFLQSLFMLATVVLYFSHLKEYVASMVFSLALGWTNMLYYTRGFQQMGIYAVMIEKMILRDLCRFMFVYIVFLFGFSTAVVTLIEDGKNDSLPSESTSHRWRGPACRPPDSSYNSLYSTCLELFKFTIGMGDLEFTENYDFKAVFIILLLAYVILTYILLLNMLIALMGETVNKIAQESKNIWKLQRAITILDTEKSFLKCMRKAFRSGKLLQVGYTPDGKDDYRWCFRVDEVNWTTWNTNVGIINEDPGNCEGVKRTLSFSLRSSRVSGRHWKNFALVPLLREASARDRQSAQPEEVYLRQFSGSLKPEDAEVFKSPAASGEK

| inhibition at 9 µM | IC50 | SMILES |
| --- | --- | --- |
| 39% |  | Cc1cccnc1N1CCC(C(=O)Nc2ccc3c(c2)NC(=O)CO3)CC1 [Example 158, 3′-Methyl-3,4,5,6-tetrahydro-2H-[1,2′]bipyridinyl-4-carboxylic acid (3-oxo-3,4-dihydro-2H-benzo[1,4]oxazin-6-yl)-amide] |
| 20.7% |  | O=C1COc2ccc(NC(=O)C3CCN(c4nc5ccccc5s4)CC3)cc2N1 [Example 159, 1-Benzothiazol-2-yl-piperidine-4-carboxylic acid (3-oxo-3,4-dihydro-2H-benzo[1,4]oxazin-6-yl)-amide] |
| 93% | 130 nM | O=C1COc2ccc(NC(=O)C3CCN(c4cccc(F)c4Br)CC3)cc2N1 [Example 160, 1-(2-Bromo-3-fluoro-phenyl)-piperidine-4-carboxylic acid (3-oxo-3,4-dihydro-2H-benzo[1,4]oxazin-6-yl)-amide] |
| 28.7% |  | O=C1COc2ccc(NC(=O)C3CCN(c4ncccc4[N+](=O)[O-])CC3)cc2N1 [Example 161, 3′-Nitro-3,4,5,6-tetrahydro-2H-[1,2′]bipyridinyl-4-carboxylic acid (3-oxo-3,4-dihydro-2H-benzo[1,4]oxazin-6-yl)-amide] |
| 37% |  | N#Cc1c(N2CCC(C(=O)Nc3ccc4c(c3)NC(=O)CO4)CC2)cccc1C(F)(F)F [Example 162, 1-(2-Cyano-3-trifluoromethyl-phenyl)-piperidine-4-carboxylic acid (3-oxo-3,4-dihydro-2H-benzo[1,4]oxazin-6-yl)-amide] |
| 19.7% |  | N#Cc1ccc(C(F)(F)F)cc1N1CCC(C(=O)Nc2ccc3c(c2)NC(=O)CO3)CC1 [Example 163, 1-(2-Cyano-5-trifluoromethyl-phenyl)-piperidine-4-carboxylic acid (3-oxo-3,4-dihydro-2H-benzo[1,4]oxazin-6-yl)-amide] |
| 87% | 110 nM | O=C1COc2ccc(NC(=O)C3CCN(c4c(F)c(F)c(Br)c(F)c4F)CC3)cc2N1 [Example 164, 1-(4-Bromo-2,3,5,6-tetrafluoro-phenyl)-piperidine-4-carboxylic acid (3-oxo-3,4-dihydro-2H-benzo[1,4]oxazin-6-yl)-amide] |
| 94.8% | 380 nM | O=C1COc2ccc(NC(=O)C3CCN(c4ccccc4C(F)(F)F)CC3)cc2N1 [Example 165, 1-(2-Trifluoromethyl-phenyl)-piperidine-4-carboxylic acid (3-oxo-3,4-dihydro-2H-benzo[1,4]oxazin-6-yl)-amide] |
| 100% | 290 nM | O=C1COc2ccc(NC(=O)C3CCN(c4cc(C(F)(F)F)ccc4C(F)(F)F)CC3)cc2N1 [Example 166, 1-(2,5-Bis-trifluoromethyl-phenyl)-piperidine-4-carboxylic acid (3-oxo-3,4-dihydro-2H-benzo[1,4]oxazin-6-yl)-amide] |
| 45.7% |  | O=C1COc2ncc(NC(=O)C3CCN(c4cccc(C(F)(F)F)c4)CC3)cc2N1 [Example 167, 1-(3-Trifluoromethyl-phenyl)-piperidine-4-carboxylic acid (2-oxo-2,3-dihydro-1H-pyrido[2,3-b][1,4]oxazin-7-yl)-amide] |

The next lines start with the compound.

| SMILES | inhibition at 9 µM | IC50 |
| --- | --- | --- |
| Cc1cc(C)c2c(NC(=O)C3CCN(c4cccc(C(F)(F)F)c4)CC3)csc2n1 [Example 41, 1-(3-Trifluoromethyl-phenyl)-piperidine-4-carboxylic acid (4,6-dimethyl-thieno[2,3-b]pyridin-3-yl)-amide] | 12% |  |
| COc1ccc(-c2cnc(NC(=O)C3CCN(c4cccc(C(F)(F)F)c4)CC3)nc2C)cc1OC [Example 42, 1-(3-Trifluoromethyl-phenyl)-piperidine-4-carboxylic acid [5-(3,4-dimethoxy-phenyl)-4-methyl-pyrimidin-2-yl]-amide] | 11% |  |
| Cc1cc(Oc2ccccc2)nc(NC(=O)C2CCN(c3cccc(C(F)(F)F)c3)CC2)n1 [Example 43, 1-(3-Trifluoromethyl-phenyl)-piperidine-4-carboxylic acid (4-methyl-6-phenoxy-pyrimidin-2-yl)-amide] | 10% |  |
| O=C1COc2cc(NC(=O)C3CCN(c4cccc(C(F)(F)F)c4)CC3)ccc2N1 [Example 44, 1-(3-Trifluoromethyl-phenyl)-piperidine-4-carboxylic acid (3-oxo-3,4-dihydro-2H-benzo[1,4]oxazin-7-yl)-amide] | 33% |  |
| CNc1ccc2ncncc2c1NC(=O)C1CCN(c2cccc(C(F)(F)F)c2)CC1 [Example 45, 1-(3-Trifluoromethyl-phenyl)-piperidine-4-carboxylic acid (6-methylamino-quinazolin-5-yl)-amide] | 5% |  |
| CC(=O)N1CCc2c(NC(=O)C3CCN(c4cccc(C(F)(F)F)c4)CC3)cccc21 [Example 46, 1-(3-Trifluoromethyl-phenyl)-piperidine-4-carboxylic acid (1-acetyl-2,3-dihydro-1H-indol-4-yl)-amide] | 61.4% | 1200 nM |
| O=C(Nc1cc(-c2ccco2)n[nH]1)C1CCN(c2cccc(C(F)(F)F)c2)CC1 [Example 47, 1-(3-Trifluoromethyl-phenyl)-piperidine-4-carboxylic acid (5-furan-2-yl-2H-pyrazol-3-yl)-amide] | 12% |  |
| O=C(Nc1cc(-c2cccs2)n[nH]1)C1CCN(c2cccc(C(F)(F)F)c2)CC1 [Example 48, 1-(3-Trifluoromethyl-phenyl)-piperidine-4-carboxylic acid (5-thiophen-2-yl-2H-pyrazol-3-yl)-amide] | 9.5% |  |
| Cc1cc(Cl)nnc1NC(=O)C1CCN(c2cccc(C(F)(F)F)c2)CC1 [Example 51, 1-(3-Trifluoromethyl-phenyl)-piperidine-4-carboxylic acid (6-chloro-4-methyl-pyridazin-3-yl)-amide] | 8% |  |
| Cn1cnc2c(N3CCC(C(=O)Nc4cccc5[nH]ccc45)CC3)ncnc21 [Example 54, 1-(9-Methyl-9H-purin-6-yl)-piperidine-4-carboxylic acid (1H-indol-4-yl)-amide] | 16% |  |
| O=C1COc2ccc(NC(=O)C3CCN(c4ccccc4)CC3)cc2N1 [Example 139, 1-Phenyl-piperidine-4-carboxylic acid (3-oxo-3,4-dihydro-2H-benzo[1,4]oxazin-6-yl)-amide] | 85% | 1810 nM |
| O=C1COc2ccc(NC(=O)C3CCN(c4cccc(Br)c4)CC3)cc2N1 [Example 149, 1-(3-Bromo-phenyl)-piperidine-4-carboxylic acid (3-oxo-3,4-dihydro-2H-benzo[1,4]oxazin-6-yl)-amide] | 91.3% | 330 nM |
| COc1cccc(N2CCC(C(=O)Nc3ccc4c(c3)NC(=O)CO4)CC2)c1 [Example 150, 1-(3-Methoxy-phenyl)-piperidine-4-carboxylic acid (3-oxo-3,4-dihydro-2H-benzo[1,4]oxazin-6-yl)-amide] | 79.3% | 1420 nM |
| O=C1COc2ccc(NC(=O)C3CCN(c4cc(F)c(F)c(F)c4)CC3)cc2N1 [Example 156, 1-(3,4,5-Trifluoro-phenyl)-piperidine-4-carboxylic acid (3-oxo-3,4-dihydro-2H-benzo[1,4]oxazin-6-yl)-amide] | 93.3% | 60 nM |
| Cc1c(Cl)cccc1N1CCC(C(=O)Nc2ccc3c(c2)NC(=O)CO3)CC1 [Example 157, 1-(3-Chloro-2-methyl-phenyl)-piperidine-4-carboxylic acid (3-oxo-3,4-dihydro-2H-benzo[1,4]oxazin-6-yl)-amide] | 90.3% | 100 nM |
| O=C(Nc1ccc2c(c1)N(CCO)C(=O)CO2)C1CCN(c2cccc(C(F)(F)F)c2)CC1 [Example 168, 1-(3-Trifluoromethyl-phenyl)-piperidine-4-carboxylic acid [4-(2-hydroxy-ethyl)-3-oxo-3,4-dihydro-2H-benzo[1,4]oxazin-6-yl]-amide] | 59.6% |  |
